Molecules are shown by their SMILES.

This experiment concerns the target T1, Human HPK1, catalytic domain (Homo sapiens, UniProt Q92918).
T1 construct: purchased Carna
T1 sequence (Q92918 1-346): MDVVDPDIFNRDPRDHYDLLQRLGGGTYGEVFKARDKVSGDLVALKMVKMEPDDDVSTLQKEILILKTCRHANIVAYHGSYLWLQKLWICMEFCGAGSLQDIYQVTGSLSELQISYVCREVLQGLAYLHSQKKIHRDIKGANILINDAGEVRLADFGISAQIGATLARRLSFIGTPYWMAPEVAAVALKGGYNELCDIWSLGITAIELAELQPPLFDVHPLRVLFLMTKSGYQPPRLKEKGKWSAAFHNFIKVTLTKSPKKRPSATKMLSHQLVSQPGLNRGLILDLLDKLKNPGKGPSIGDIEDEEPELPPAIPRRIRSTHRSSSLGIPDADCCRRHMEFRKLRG
The experiment can be described thus: HPK1-SLP76 TR-FRET assay. In kind it is biochemical. Particulars: 75 pM HPK1, 10 uM ATP, 10 nM SLP76, 30 min compound pre-incubation. (In general: TR-FRET usually uses a lanthanide donor and a delayed reading to cut background.)
The term IC50 denotes the concentration at which inhibition is half-maximal. Low values mean inhibition by little substance, high ones a need for much substance. Regarding `CNC(=O)c1cccc(Nc2nc(Nc3cc4c(cc3F)CCN(C)C4)ncc2C(N)=O)c1` [Example 7-41, 2-[(6-fluoro-2-methyl-1,2,3,4-tetrahydroisoquinolin-7-yl)amino]-4-{[3-(methylcarbamoyl)phenyl]amino} pyrimidine-5-carboxamide], inhibition was half-maximal at 8.85 nM (IC50).

Turning to `CN1CCc2cc(F)c(Nc3ncc(C(N)=O)c(Nc4ccccc4CO)n3)cc2C1` [Example 7-42, 2-[(6-fluoro-2-methyl-1,2,3,4-tetrahydroisoquinolin-7-yl)amino]-4-{[2-(hydroxymethyl)phenyl]amino}py-rimidine-5-carboxamide], the IC50 was found to be 0.12 nM.

In turn, `NC(=O)c1cnc(Nc2cnn(CC3CC3)c2)nc1Nc1cccc2c1CCNC2=O` [Example 7-43, 2-{[1-(cyclopropylmethyl)-1H-pyrazol-4-yl]amino}-4-[(1-oxo-1,2,3,4-tetrahydroisoquinolin-5-yl)amino]pyrimidine-5-carboxamide] returned an IC50 of 4.25 nM.

In turn, `Cn1cc(Nc2ncc(C(N)=O)c(Nc3cccc4c3CCNC4=O)n2)cn1` [Example 7-44, 2-[(1-methyl-1H-pyrazol-4-yl)amino]-4-[(1-oxo-1,2,3,4-tetrahydroisoquinolin-5-yl)amino]pyrimidine-5-carboxamide] returned an IC50 of 4.69 nM.

In turn, `NC(=O)c1cnc(Nc2cnn(CC(F)(F)F)c2)nc1Nc1cccc2c1CCNC2=O` [Example 7-45, 4-[(1-oxo-1,2,3,4-tetrahydroisoquinolin-5-yl)amino]-2-{[1-(2,2,2-trifluoroethyl)-1H-pyrazol-4-yl]amino}pyrimidine-5-carboxamide] yielded a 50% inhibitory concentration (IC50) of 19.5 nM.

Consider `CC(C1CC1)n1cc(Nc2ncc(C(N)=O)c(Nc3cccc4c3CCNC4=O)n2)cn1` (centres unmarked) [Example 7-46, 2-{[1-(1-cyclopropylethyl)-1H-pyrazol-4-yl]amino}-4-[(1-oxo-1,2,3,4-tetrahydroisoquinolin-5-yl)amino]pyrimidine-5-carboxamide], for which the half-maximal inhibitory concentration (IC50) was 0.28 nM.

As for `COc1nn(C)cc1Nc1ncc(C(N)=O)c(Nc2cccc3c2CCNC3=O)n1` [Example 7-47, 2-[(3-methoxy-1-methyl-1H-pyrazol-4-yl)amino]-4-[(1-oxo-1,2,3,4-tetrahydroisoquinolin-5-yl)amino]pyrimidine-5-carboxamide], the 50% inhibitory concentration (IC50) is 3.57 nM.

In turn, `CS(=O)(=O)c1ccc(Nc2ncc(C(N)=O)c(Nc3cccc4c3CCNC4=O)n2)cc1` [Example 7-48, 2-{[4-(methylsulfonyl)phenyl]amino}-4-[(1-oxo-1,2,3,4-tetrahydroisoquinolin-5-yl)amino]pyrimidine-5-carboxamide] registered an IC50 of 1.29 nM.

On to `COc1cc2c(cc1Nc1ncc(C(N)=O)c(Nc3ccccc3C#N)n1)CN(C)CC2` [Example 7-49, 4-[(2-cyanophenyl)amino]-2-[(6-methoxy-2-methyl-1,2,3,4-tetrahydroisoquinolin-7-yl)amino]pyrimidine-5-carboxamide], for which the IC50 amounted to 0.34 nM.

For `CC(C)n1cc(Nc2ncc(C(N)=O)c(Nc3cccc4c3CCNC4=O)n2)cn1` [Example 7-50, 4-[(1-oxo-1,2,3,4-tetrahydroisoquinolin-5-yl)amino]-2-{[1-(propan-2-yl)-1H-pyrazol-4-yl]amino}pyrimidine-5-carboxamide], the IC50 came out at 6.24 nM.

`NC(=O)c1cnc(Nc2cnn(C3CCC3)c2)nc1Nc1cccc2c1CCNC2=O` [Example 7-51, 2-[(1-cyclobutyl-1H-pyrazol-4-yl)amino]-4-[(1-oxo-1,2,3,4-tetrahydroisoquinolin-5-yl)amino]pyrimidine-5-carboxamide] gave a half-maximal inhibitory concentration (IC50) of 4.21 nM.

Take `NC(=O)c1cnc(Nc2cnn(C3CCNCC3)c2)nc1Nc1cccc2c1CCNC2=O` [Example 7-52, 4-[(1-oxo-1,2,3,4-tetrahydroisoquinolin-5-yl)amino]-2-{[1-(piperidin-4-yl)-1H-pyrazol-4-yl]amino}pyrimidine-5-carboxamide]: the 50% inhibitory concentration (IC50) worked out at 0.55 nM.

For `NC(=O)c1cnc(Nc2cnn3c2CCCC3)nc1Nc1cccc2c1CCNC2=O` [Example 7-53, 4-[(1-oxo-1,2,3,4-tetrahydroisoquinolin-5-yl)amino]-2-[(4,5,6,7-tetrahydropyrazolo[1,5-a]pyridin-3-yl)amino]pyrimidine-5-carboxamide], the half-maximal inhibitory concentration (IC50) was determined as 3.94 nM.

`Cn1ncc(Nc2ncc(C(N)=O)c(Nc3cccc4c3CCNC4=O)n2)c1C(F)F` [Example 7-54, 2-{[5-(difluoromethyl)-1-methyl-1H-pyrazol-4-yl]amino}-4-[(1-oxo-1,2,3,4-tetrahydroisoquinolin-5-yl)amino]pyrimidine-5-carboxamide] returned a half-inhibitory concentration (IC50) of 82.5 nM.

`Cn1cc(Nc2ncc(C(N)=O)c(Nc3cccc4c3CCNC4=O)n2)c(OCC(F)F)n1` [Example 7-55, 2-{[3-(2,2-difluoroethoxy)-1-methyl-1H-pyrazol-4-yl]amino}-4-[(1-oxo-1,2,3,4-tetrahydroisoquinolin-5-yl)amino]pyrimidine-5-carboxamide] yielded an IC50 of 15.3 nM.

Take `Cn1ncc(Nc2ncc(C(N)=O)c(Nc3cccc4c3CCNC4=O)n2)c1C(F)(F)F` [Example 7-56, 2-{[1-methyl-5-(trifluoromethyl)-1H-pyrazol-4-yl]amino}-4-[(1-oxo-1,2,3,4-tetrahydroisoquinolin-5-yl)amino]pyrimidine-5-carboxamide]: the concentration for half-maximal inhibition (IC50) worked out at 249 nM.

The molecule `NC(=O)c1cnc(Nc2cnn3c2OCCC3)nc1Nc1cccc2c1CCNC2=O` [Example 7-57, 2-[(6,7-dihydro-5H-pyrazolo[5,1-b][1,3]oxazin-3-yl)amino]-4-[(1-oxo-1,2,3,4-tetrahydroisoquinolin-5-yl)amino]pyrimidine-5-carboxamide] yielded an IC50 of 1.31 nM.

`NC(=O)c1cnc(Nc2cc3n(n2)CCC3)nc1Nc1cccc2c1CCNC2=O` [Example 7-58, 2-[(5,6-dihydro-4H-pyrrolo[1,2-b]pyrazol-2-yl)amino]-4-[(1-oxo-1,2,3,4-tetrahydroisoquinolin-5-yl)amino]pyrimidine-5-carboxamide] came in with a half-maximal inhibitory concentration (IC50) of 3.65 nM.

`CS(=O)(=O)Cc1ccc(Nc2ncc(C(N)=O)c(Nc3cccc4c3CCNC4=O)n2)cc1` [Example 7-59, 2-({4-[(methylsulfonyl)methyl]phenyl}amino)-4-[(1-oxo-1,2,3,4-tetrahydroisoquinolin-5-yl)amino]pyrimidine-5-carboxamide] displayed a 50% inhibitory concentration (IC50) of 2.15 nM.

Turning to `CC(C)(c1ccc(Nc2ncc(C(N)=O)c(Nc3cccc4c3CCNC4=O)n2)cc1)S(C)(=O)=O` [Example 7-60, 2-({4-[2-(methylsulfonyl)propan-2-yl]phenyl}amino)-4-[(1-oxo-1,2,3,4-tetrahydroisoquinolin-5-yl)amino]pyrimidine-5-carboxamide], it took 0.51 nM to reach half-maximal inhibition (IC50).

`COc1ccc(S(C)(=O)=O)cc1Nc1ncc(C(N)=O)c(Nc2cccc3c2CCN(C)C3)n1` [Example 7-61, 2-{[2-methoxy-5-(methylsulfonyl)phenyl]amino}-4-[(2-methyl-1,2,3,4-tetrahydroisoquinolin-5-yl)amino]pyrimidine-5-carboxamide]: half-maximal inhibition (IC50) was put at 108 nM.

`COc1nn(CC(F)(F)F)cc1Nc1ncc(C(N)=O)c(Nc2cccc3c2CCN(C)C3)n1` [Example 7-62, 2-{[3-methoxy-1-(2,2,2-trifluoroethyl)-1H-pyrazol-4-yl]amino}-4-[(2-methyl-1,2,3,4-tetrahydroisoquinolin-5-yl)amino]pyrimidine-5-carboxamide] came in with an IC50 of 56 nM.

Molecule `COc1ccc(S(C)(=O)=O)cc1Nc1ncc(C(N)=O)c(Nc2cccc3c2CCNC3)n1` [Example 7-63, 2-{[2-methoxy-5-(methylsulfonyl)phenyl]amino}-4-[(1,2,3,4-tetrahydroisoquinolin-5-yl)amino]pyrimidine-5-carboxamide] yielded an IC50 of 103 nM.

As for `CN1Cc2ccc(Nc3ncc(C(N)=O)c(Nc4cccc5c4CCNC5)n3)cc2C1=O` [Example 7-64, 2-[(2-methyl-3-oxo-2,3-dihydro-1H-isoindolin-5-yl)amino]-4-[(1,2,3,4-tetrahydroisoquinolin-5-yl)amino]pyrimidine-5-carboxamide], half-maximal inhibition (IC50) was put at 3.65 nM.

`CS(=O)(=O)c1ccc(Nc2ncc(C(N)=O)c(Nc3c(F)cccc3CO)n2)cc1` [Example 7-65, 4-{[2-fluoro-6-(hydroxymethyl)phenyl]amino}-2-{[4-(methylsulfonyl)phenyl]amino}py-rimidine-5-carboxamide] showed an IC50 of 91.5 nM.

The molecule `COc1cc2c(cc1Nc1ncc(C(N)=O)c(Nc3cc(C(F)(F)F)cc4c3CCNC4)n1)CN(C)CC2` [Example 7-66, 2-[(6-methoxy-2-methyl-1,2,3,4-tetrahydroisoquinolin-7-yl)amino]-4-{[7-(trifluoromethyl)-1,2,3,4-tetrahydroisoquinolin-5-yl]amino}pyrimidine-5-carboxamide] gave a half-inhibitory concentration (IC50) of 0.15 nM.

In turn, `CS(=O)(=O)Cc1ccc(Nc2ncc(C(N)=O)c(Nc3ccccc3CO)n2)cc1` [Example 7-68, 4-{[2-(hydroxymethyl)phenyl]amino}-2-({4-[(methylsulfonyl)methyl]phenyl}amino)pyrimidine-5-carboxamide] came in with a 50% inhibitory concentration (IC50) of 14 nM.

With `COc1cc2c(cc1Nc1ncc(C(N)=O)c(Nc3ccccc3I)n1)CN(C)CC2` [Example 7-70, 4-[(2-iodophenyl)amino]-2-[(6-methoxy-2-methyl-1,2,3,4-tetrahydroisoquinolin-7-yl)amino]pyrimidine-5-carboxamide], the half-maximal inhibitory concentration (IC50) came to 0.15 nM.

The molecule `COc1cc2c(cc1Nc1ncc(C(N)=O)c(Nc3cccc(Br)c3)n1)CN(C)CC2` [Example 7-71, 4-[(3-bromophenyl)amino]-2-[(6-methoxy-2-methyl-1,2,3,4-tetrahydroisoquinolin-7-yl)amino]pyrimidine-5-carboxamide] registered a half-maximal inhibitory concentration (IC50) of 1.49 nM.

Values taken from US20230416225A1, “DIAMINOPYRIMIDINE CARBOXAMIDE INHIBITORS OF HPK1” (MERCK SHARP & DOHME LLC, priority 2020, published 2023).
